Reference: patent US12240862B2, “Inhibitors of peptidylarginine deiminases” (Gilead Sciences, Inc., priority 2020, dated 2025)

Molecular target: T1, human PAD4 (Homo sapiens, UniProt Q9UM07)
T1 construct: human PAD4 (NM_012387), A2P663, was PCR amplified; His-SUMO (N, cleaved yes); made in house; host or cells: E. coli BL21(DE3)
Experiment: In vitro PAD4 BAEE biochemical assay
Details: human PAD4, BAEE substrate; 5 nM PAD4, 2 mM calcium chloride, 3 mM BAEE; geometric mean of multiple experiments
How it was run: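 Tag-free recombinant hPAD4 (5 nM), 2 mM CaCl2, 3 mM BAEE, 50 mM MOPS pH 7.6, 2 mM DTT; 30 min compound preincubation, 2 h reaction, all 25 °C. EDTA quench; ammonia read via o-phthalaldehyde amine coupling, 1 h.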

T1 sequence (Q9UM07 2-663): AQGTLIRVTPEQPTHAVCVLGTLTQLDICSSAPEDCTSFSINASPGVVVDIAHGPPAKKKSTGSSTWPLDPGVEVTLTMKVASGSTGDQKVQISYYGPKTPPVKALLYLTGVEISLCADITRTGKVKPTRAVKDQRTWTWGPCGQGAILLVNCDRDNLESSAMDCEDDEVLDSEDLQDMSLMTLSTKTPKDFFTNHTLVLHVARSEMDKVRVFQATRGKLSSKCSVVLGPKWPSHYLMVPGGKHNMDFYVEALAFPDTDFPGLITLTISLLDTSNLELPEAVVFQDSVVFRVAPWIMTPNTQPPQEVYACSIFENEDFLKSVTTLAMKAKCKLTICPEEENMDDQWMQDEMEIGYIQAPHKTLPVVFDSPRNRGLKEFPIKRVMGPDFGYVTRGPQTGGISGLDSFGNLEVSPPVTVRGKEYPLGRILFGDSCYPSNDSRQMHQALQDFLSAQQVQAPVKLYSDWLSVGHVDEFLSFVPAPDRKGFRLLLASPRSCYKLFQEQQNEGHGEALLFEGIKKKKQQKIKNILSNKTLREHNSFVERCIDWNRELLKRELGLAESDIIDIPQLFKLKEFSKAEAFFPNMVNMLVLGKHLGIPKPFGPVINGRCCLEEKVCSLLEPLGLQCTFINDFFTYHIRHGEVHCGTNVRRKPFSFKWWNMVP

Structure (SMILES)	IC50 [nM]
CCc1ccc2cc(-c3nc4cc(C(=O)N5CCC6CCNC6C5)cc(OC)n4c3C)n(CC3CC3)c2n1 (centres unmarked) [Example 583, 1,2,3,3~{a},4,5,7,7~{a}-octahydropyrrolo[2,3-c] pyridin-6-yl-[2-[1-(cyclopropylmethyl)-6-ethylpyrrolo[2,3-b]pyridin-2-yl]-5-methoxy-3-methylimidazo[1,2-a]pyridin-7-yl]methanone]	535
COc1cc(C(=O)N2CC[C@H]3CCCN[C@H]3C2)cc2nc(-c3cc4ccc(N(C(F)F)S(C)(=O)=O)nc4n3CC3CC3)c(C3CC3)n12 [Example 310, ~{N}-[2-[7-[(4~{a}~{R},8~{a}~{R})-2,3,4,4~{a},5,6,8,8~{a}-octahydro-1~{H}-1,7-naphthyridine-7-carbonyl]-3-cyclopropyl-5-methoxyimidazo [1,2-a]pyridin-2-yl]-1-(cyclopropylmethyl)pyrrolo [2,3-b]pyridin-6-yl]-~{N}-(difluoromethyl) methanesulfonamide]	886
COc1cc(C(=O)N2C[C@H](N)CC[C@@H]2C)cc2nc(-c3cc4ccc(N(C(F)F)S(C)(=O)=O)nc4n3CC3CC3)c(CC3CC3)n12 [Example 405, ~{N}-[2-[7-[(2~{S},5~{R})-5-amino-2-methylpiperidine-1-carbonyl]-3-(cyclopropylmethyl)-5-methoxyimidazo[1,2-a]pyridin-2-yl]-1-(cyclopropylmethyl)pyrrolo [2,3-b]pyridin-6-yl]-~{N}-(difluoromethyl) methanesulfonamide]	589
COc1cc(C(=O)N2[C@H]3CC[C@@H]2[C@H](N)C3)cc2nc(-c3cc4ccc([C@H](C)CC(=O)N5CCCC5)nc4n3CC3CC3)c(C)n12 [Example 522, (3~{R})-3-[2-[7-[(1~{R},2~{R},4~{S})-2-amino-7-azabicyclo[2.2.1]heptane-7-carbonyl]-5-methoxy-3-methylimidazo [1,2-a]pyridin-2-yl]-1-(cyclopropylmethyl)pyrrolo[2,3-b]pyridin-6-yl]-1-pyrrolidin-1-ylbutan-1-one]	135

These reach a lower IC50. Values come first.

IC50 [nM]	Structure (SMILES)
83.1	COc1cc(C(=O)N2[C@H]3CC[C@@H]2[C@H](N)C3)cc2nc(-c3cc4ccc(C5CCNC(=O)C5)nc4n3CC3CC3)c(C)n12 (some centres unmarked) [Example 562, 4-[2-[7-[(1~{R},2~{R}, 4~{S})-2-amino-7-azabicyclo[2.2.1]heptane-7-carbonyl]-5-methoxy-3-methylimidazo[1,2-a]pyridin-2-yl]-1-(cyclopropylmethyl)pyrrolo[2,3-b]pyridin-6-yl]piperidin-2-one]
64.2	COc1cc(C(=O)N2[C@H]3CC[C@@H]2[C@H](N)C3)cc2nc(-c3cc4ccc([C@@H](C)NC(=O)NC5CCOC5)nc4n3CC3CC3)c(C)n12 (some centres unmarked) [Example 231, 1-[(1~{R})-1-[2-[7-[(1~{R},2~{R},4~{S})-2-amino-7-azabicyclo[2.2.1]heptane-7-carbonyl]-5-methoxy-3-methylimidazo [1,2-a]pyridin-2-yl]-1-(cyclopropylmethyl)pyrrolo [2,3-b]pyridin-6-yl]ethyl]-3-(oxolan-3-yl)urea]
38.7	COc1cc(C(=O)N2[C@H]3CC[C@@H]2[C@H](N)C3)cc2nc(-c3cc4ccc([C@@H](C)NC(=O)c5ncco5)nc4n3CC3CC3)c(C)n12 [Example 73, ~{N}-[(1~{R})-1-[2-[7-[(1~{R},2~{R},4~{S})-2-amino-7-azabicyclo[2.2.1]heptane-7-carbonyl]-5-methoxy-3-methylimidazo [1,2-a]pyridin-2-yl]-1-(cyclopropylmethyl)pyrrolo [2,3-b]pyridin-6-yl]ethyl]-1,3-oxazole-2-carboxamide]
33.4	COc1cc(C(=O)N2[C@H]3CC[C@@H]2[C@H](N)C3)cc2nc(-c3cc4ccc([C@@H](C)NC(=O)c5cc(C)nc(Cl)c5)nc4n3CC3CC3)c(C)n12 [Example 46, ~{N}-[(1~{R})-1-[2-[7-[(1~{R},2~{R},4~{S})-2-amino-7-azabicyclo[2.2.1]heptane-7-carbonyl]-5-methoxy-3-methylimidazo [1,2-a]pyridin-2-yl]-1-(cyclopropylmethyl)pyrrolo[2,3-b]pyridin-6-yl]ethyl]-2-chloro-6-methylpyridine-4-carboxamide]
